Values joined by “and” are separate entries in the source; they are usually repeats but may differ in a detail not shown here. Equal entries are not always repeated. Where two headings read alike, the source gives them in different places.
Legend:
[1] = tested on: Culex pipiens quinquefasciatus; test: Mosquito engorgement test on treated shaved guinea pigs, Culex pipiens quinquefasciatus; format: in vivo
Source text: The tests were undertaken using experimental cages, which were composed of a plastic frame having the dimensions 29×29×29 cm. A sleeve of mosquito netting was placed over the cage. The sleeves of the netting were closed with rubber bands thus preventing light from entering the cages.
In each cage the mosquitoes had at their disposition a little water placed in a jar.
The mosquitoes that were used in this experiment were Culex pipiens quinquefasciatus. In each cage 50 female mosquitoes were introduced.
The day before the test 50 […] female mosquitoes were introduced into their experimental cage. The mosquitoes were deprived of a source of sugar at least twelve hours before the test.
The mosquitoes were collected by suction on the walls of the experimental cage with a mouth vacuum that was connected to a suction pump. To avoid errors, the mosquitoes were removed and introduced in lots of five. The sex was determined by observation of their antennas, since the male's antennas are more feathery.
Once the mouth vacuum was empty in the experimental cage the health of the mosquitoes was verified. To be used in the experiment, the mosquitoes had to be able to fly. Before the test the dead mosquitoes or those mosquitoes that could not fly were replaced with healthy ones.
Prior to starting the experiment the mosquitoes were tested to determine if the mosquitoes were ready to bite. This was verified by introducing a hand washed with soap and without any smell in the experimental cage. If more than three mosquitoes posed on the hand voluntarily within a delay of 30 seconds, then it was deemed that the mosquitoes were ready to bite. The hand was withdrawn when the three mosquitoes posed on it or when the 30 second time period was up. This test was repeated every minute for a maximum of 5 minutes, until a positive result was obtained. If no positive result was obtained the experiment was postponed.
A herd of guinea pigs males and females aging from 4 months to 3 years were used in the experiments. The guinea pig was anesthetized by injecting 1 mg/kg (live weight) of Zoletil® 20 in the thigh. A thin layer of Ocryl® gel was placed on the eyes of the guinea pigs.
The abdominal zone of the guinea pigs were carefully shaved from the teats to the base of the thorax. The area that was shaved was 8 cm from the base of the thorax to the teats by 6 cm from left to right of the guinea pig. This was done using a transparent template.
After shaking the sprayer containing the insect bite inhibiting semiochemical, each guinea pig was sprayed 3 times (0.5 ml total) in the center of the shaved region. After the first administration, the product was spread with the little finger, in which the hand is covered by a vinyl glove, towards the teats. After the second administration by spraying the product was spread with the gloved little finger towards the thorax. After the third administration by spraying the product was spread over the entire shaved surface. The product was permitted to dry for a period of five minutes.
At the bottom of the experimental cage a transparent sheet was placed in which a rectangle of 7 cm by 5 cm was cut in the center. Another cover sheet cut with the same dimensions as the transparent sheet was made and the two rectangles were superimposed on one another and stapled together with 8 staples.
The shaved zone of the guinea pig was centered over the rectangular transparent sheet and the guinea pigs were exposed to the mosquitoes for 30 minutes. See, FIGS. 2 and 3.
At the end of 30 minutes, the mosquitoes were recovered by mouth vacuum. They were then enclosed in a plastic bag that contained a paper soaked with ethyl acetate. After 3 minutes the mosquitoes were aligned on a strip of scotch tape that was labeled with the number of the experiment, the date, the name of the guinea pig in the experiment and the treatment that was applied.
Each treatment was tested with a control.

[2] = tested on: Culex pipiens quinquefasciatus; test: Mosquito engorgement test on treated cats, Culex pipiens quinquefasciatus; format: in vivo; settings: cat
Procedure: Other tests were performed on guinea pigs and cats using combinations of D, which is 3-cyclopentyl propanoic acid, F, which is 3-cyclohexyl propanoic acid, X, which is 3-cyclohexyl 2-methyl propanoic acid and W, which is 3-cyclopentyl 2-methyl propanoic acid.
The same experiment was conducted in the same manner as in Example 4 using guinea pigs, chickens and cats. The mosquitoes used in this experiment were Culex sp, Aedes sp and Anopheles.
The procedure that was followed was that in Example 4, except that cats (Felis domesticus) were tested instead of guinea pigs. The mosquitoes that were used in this experiement were Culex pipiens quinquefasciatus and Aedes aegypti.

insects = settings: cited from earlier work
[3] = guinea pig, solution 0.1%, dose not given, 30 min exposure
[4] = guinea pig, solution 0.3%, dose 31 μg/cm^2, 30 min exposure
[5] = guinea pig, dose 31 μg/cm^2 (Table 7)
[6] = guinea pig, solution 0.3%, dose 33 μg/cm^2, 30 min exposure
[7] = solution 3.0%, dose 324 μg/cm^2, 30 min exposure
[8] = guinea pig, solution 3.0%, dose 31 μg/cm^2, 30 min exposure

In the case of Cc1ncc(CO)c(CO)c1O [Vit. B6, reference compound], the “% bites tested” value [1, 3] is reported as 87% and the “% efficacy” value [1, 3] is reported as −19%.

In the case of CC12CCC(CC1)C(C)(C)O2 [eucalyptol, reference compound], the “% bites tested” value [1, 4] is reported as 43% and the “% efficacy” value [1, 4] is reported as −14%.

In the case of CC(CC1CCCC1)C(=O)O (stereo not shown) [methylated 3-CPP, 3-cyclopentyl 2-methyl propanoic acid], the “% efficacy” value [1, 5] is reported as 89%.

For O=C(O)CCC1CCCC1 [3-CPP, 3-cyclopentyl propionic acid], the “% bites tested” value [1, 4] was 4% and 5% and 1% and 11%, the “% efficacy” value [1, 4] was 94% and 85% and 91% and 82% and the “% bites tested” value [1, 6] was 0%. For the same compound, the “% efficacy” value [1, 6] was 100%, the “% bites tested” value [1, 7] was 0% and the “% efficacy” value [1, 7] was 100%. For the same compound, the “% efficacy” value ([2]; 3.0%, dose 314 μg/cm^2) was 100%, the “Number of bites of the solution used” value ([2]; 3.0%, dose 314 μg/cm^2) was 0% and the “% efficacy” value ([2]; dose 32 μg/cm^2) was 94% and 100%. For the same compound, the “% efficacy” value ([2]; dose 324 μg/cm^2) was 100%.

With pinene [reference compound] the “% bites tested” value [1, 4] was 23% and the “% efficacy” value [1, 4] was 30%.

For CC(CC1CCCCC1)C(=O)O (stereo not shown) [methylated 3-CHP, 3-cyclohexyl 2-methyl propanoic acid], the “% efficacy” value [1, 5] was 67%.

With “methylated cyclohexyl acetic acid [methylated CHA]” the “% efficacy” value [1, 5] was 77%.

For C=C(C)[C@H]1CC=C(C)CC1 [limonene, reference compound], the “% bites tested” value [1, 4] was 58% and the “% efficacy” value [1, 4] was −19%.

With CC(C)=CCC/C(C)=C/CO [geraniol, reference compound] the “% bites tested” value [1, 4] was 25%, the “% efficacy” value [1, 4] was 58% and the “% bites tested” value [1, 8] was 0%. The “% efficacy” value [1, 8] was 100%.

In the case of CC1=CC[C@@H](C(C)(C)O)CC1 [alpha terpineol, reference compound], the “% bites tested” value [1, 4] is reported as 32% and the “% efficacy” value [1, 4] is reported as 48%.

In the case of O=C(O)CC1CCCCC1 [CHA, cyclohexyl acetic acid], the “% bites tested” value [1, 4] is reported as 8% and the “% efficacy” value [1, 4] is reported as 86%.

For CCN(CC)C(=O)c1cccc(C)c1 [DEET, N,N-diethyl-meta-toluamide], the protection time (insects; encapsulated DEET) is given as “up to 10 hours”, the protection time (insects; product containing 4.75% of DEET) is given as “one and a half” and the protection time (insects; product containing 23.8% of DEET) is given as “five”.

With Cc1ncc(C[n+]2csc(CCO)c2C)c(N)n1 [Vit. B1, reference compound] the “% bites tested” value [1, 3] was 93% and the “% efficacy” value [1, 3] was 2%.
